Experimental findings from publication PMC9296036, “A peptide interfering with the dimerization of oncogenic KITENIN protein and its stability suppresses colorectal tumour progression” (Clinical and Translational Medicine, 2022) are described below.

The experiment concerns CT-26/EV tumours. The experiment is described as follows: Syngeneic subcutaneous tumour model, CT-26/EV cells in BALB/c mice. The experiment is classed as in vivo, mouse. The following applies: CT-26/EV (no forced KITENIN overexpression), KDIP 1 mg/kg intravenously alternate days for 14 days. How it is done:
The CT‐26 cell/syngeneic mouse model was used to investigate the in vivo effects of KDIP on colorectal tumourigenesis, as it is reported that a syngeneic mouse tumour model is good for testing the anticancer effects of candidate substances.[25], [26] Male Balb/c mice (5‐week old) were purchased from DaMul Science, Korea and acclimated for 1 week prior to subcutaneous injection of syngeneic CT‐26/EV (3 × 10^6) or CT‐26/KITENIN cells (1 × 10^6) into the dorsum. Tumour volume was calculated using the following equation: V = 1/2 × a × b […], where a and b are the longest and shortest diameters of the tumour (in millimetres), respectively. Tumour volume was measured every other day for 14 days to verify the effects of KDIP. All mice were sacrificed after Day 30 (Figure 7B), and the subcutaneous tumour grafts were surgically excised and weighed.
For the experimental tumour model, CT‐26/EV or CT‐26/KITENIN‐V5 cells were injected into the right back of BALB/c mice to form tumours, and KDIP was injected intravenously according to the timeline shown in Figure 7B. Considering the suppressive effect of KDIP on the cell invasion of CT‐26 cells, the initial test dosage was set to 1 mg/kg, which is equivalent to the half‐maximal inhibitory concentration (IC50) of KDIP on cell invasion. […] After 2 weeks of treatment, the mice were sacrificed and the tumours were analysed. […]

“Also recorded” adds a separate entry of the source. Ends that are not written are not given here.

As for YARVRRRGPRRWRLVSDEAV [KDIP], the “tumour growth (in words)” value is given as “little effect on tumor growth; also recorded: little effect on tumour growth”.
